# Data as given in PubChem BioAssay (NCI).
#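 Results reflect a 48-hour exposure of cells in 96-well plates to compound at five concentrations. Definition used: TGI = concentration required for complete inhibition of growth.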
# How the values were obtained:
# Assay in all cases: growth of human tumour cells (NCI), 48 h
# NCI/ADR-RES ovarian = test system: NCI/ADR-RES ovarian
# A498 renal = test system: A498 renal
# LOX IMVI melanoma = test system: LOX IMVI melanoma
# MDA-MB-435 = test system: MDA-MB-435
# MCF7 breast = test system: MCF7 breast
# UACC-62 melanoma = test system: UACC-62 melanoma
# MDA-N = test system: MDA-N
# SR leukemia = test system: SR leukemia
# SF-295 CNS = test system: SF-295 CNS
# HS 578T breast = test system: HS 578T breast
# HCT-116 colon = test system: HCT-116 colon
# UO-31 renal = test system: UO-31 renal
# CCRF-CEM leukemia = test system: CCRF-CEM leukemia
# IGROV1 ovarian = test system: IGROV1 ovarian
# SF-268 CNS = test system: SF-268 CNS
# ACHN renal = test system: ACHN renal
# MALME-3M melanoma = test system: MALME-3M melanoma
# OVCAR-4 ovarian = test system: OVCAR-4 ovarian
# BT-549 breast = test system: BT-549 breast
# RXF 393 renal = test system: RXF 393 renal
# SW-620 colon = test system: SW-620 colon
# MDA-MB-231 breast = test system: MDA-MB-231 breast
# HCC-2998 colon = test system: HCC-2998 colon
# SNB-19 CNS = test system: SNB-19 CNS
# DU-145 prostate = test system: DU-145 prostate
# MOLT-4 leukemia = test system: MOLT-4 leukemia
# SK-MEL-5 melanoma = test system: SK-MEL-5 melanoma
# SK-MEL-2 melanoma = test system: SK-MEL-2 melanoma
# KM12 colon = test system: KM12 colon
# NCI-H522 lung = test system: NCI-H522 lung
# SK-OV-3 ovarian = test system: SK-OV-3 ovarian
# NCI-H226 lung = test system: NCI-H226 lung
# OVCAR-5 ovarian = test system: OVCAR-5 ovarian
# OVCAR-8 ovarian = test system: OVCAR-8 ovarian
# HT29 colon = test system: HT29 colon
# UACC-257 melanoma = test system: UACC-257 melanoma
# OVCAR-3 ovarian = test system: OVCAR-3 ovarian
# RPMI-8226 leukemia = test system: RPMI-8226 leukemia
# HL-60(TB) leukemia = test system: HL-60(TB) leukemia
# SF-539 CNS = test system: SF-539 CNS
# TK-10 renal = test system: TK-10 renal
# T-47D breast = test system: T-47D breast
# HCT-15 colon = test system: HCT-15 colon
# SK-MEL-28 melanoma = test system: SK-MEL-28 melanoma
# K-562 leukemia = test system: K-562 leukemia
# NCI-H23 lung = test system: NCI-H23 lung
# SN12C renal = test system: SN12C renal
# EKVX NSCLC = test system: EKVX NSCLC
# HOP-92 NSCLC = test system: HOP-92 NSCLC
# PC-3 prostate = test system: PC-3 prostate
# COLO 205 colon = test system: COLO 205 colon
# M14 melanoma = test system: M14 melanoma
# NCI-H460 lung = test system: NCI-H460 lung
# A549 NSCLC = test system: A549 NSCLC
# SNB-75 CNS = test system: SNB-75 CNS
# CAKI-1 renal = test system: CAKI-1 renal
# HOP-62 NSCLC = test system: HOP-62 NSCLC
# U251 CNS = test system: U251 CNS
# 786-0 renal = test system: 786-0 renal
# KM20L2 colon = test system: KM20L2 colon
# DMS 114 small cell lung = test system: DMS 114 small cell lung
# XF 498 CNS = test system: XF 498 CNS
# M19-MEL melanoma = test system: M19-MEL melanoma
# LXFL 529 NSCLC = test system: LXFL 529 NSCLC
# DMS 273 small cell lung = test system: DMS 273 small cell lung
# SNB-78 CNS = test system: SNB-78 CNS
smiles,measurement,setting,value
Cc1ccc([N+](=O)[O-])cc1S(=O)(=O)Nc1ccc(C2=NNC(c3ccccc3O)C2)cc1 (stereo unspecified),TGI,NCI/ADR-RES ovarian,81 µM
same,TGI,A498 renal,79.3 µM
same,TGI,LOX IMVI melanoma,> 100 µM
same,TGI,MDA-MB-435,50.6 µM
same,TGI,MCF7 breast,64.7 µM
same,TGI,UACC-62 melanoma,41.6 µM
same,TGI,MDA-N,93.5 µM
same,TGI,SR leukemia,87.7 µM
same,TGI,SF-295 CNS,90.9 µM
same,TGI,HS 578T breast,> 100 µM
same,TGI,HCT-116 colon,60.8 µM
same,TGI,UO-31 renal,79.2 µM
same,TGI,CCRF-CEM leukemia,> 100 µM
same,TGI,IGROV1 ovarian,> 100 µM
same,TGI,SF-268 CNS,> 100 µM
same,TGI,ACHN renal,77 µM
same,TGI,MALME-3M melanoma,96.3 µM
same,TGI,OVCAR-4 ovarian,63.8 µM
same,TGI,BT-549 breast,63.5 µM
same,TGI,RXF 393 renal,40.5 µM
same,TGI,SW-620 colon,> 100 µM
same,TGI,MDA-MB-231 breast,> 100 µM
same,TGI,HCC-2998 colon,> 100 µM
same,TGI,SNB-19 CNS,> 100 µM
same,TGI,DU-145 prostate,> 100 µM
same,TGI,MOLT-4 leukemia,96.3 µM
same,TGI,SK-MEL-5 melanoma,58.6 µM
same,TGI,SK-MEL-2 melanoma,65.6 µM
same,TGI,KM12 colon,76.7 µM
same,TGI,NCI-H522 lung,> 100 µM
same,TGI,SK-OV-3 ovarian,> 100 µM
same,TGI,NCI-H226 lung,> 100 µM
same,TGI,OVCAR-5 ovarian,> 100 µM
same,TGI,OVCAR-8 ovarian,> 100 µM
same,TGI,HT29 colon,> 100 µM
same,TGI,UACC-257 melanoma,> 100 µM
same,TGI,OVCAR-3 ovarian,43.7 µM
same,TGI,RPMI-8226 leukemia,> 100 µM
same,TGI,HL-60(TB) leukemia,61.8 µM
same,TGI,SF-539 CNS,> 100 µM
same,TGI,TK-10 renal,> 100 µM
same,TGI,T-47D breast,72.4 µM
same,TGI,HCT-15 colon,97.6 µM
same,TGI,SK-MEL-28 melanoma,> 100 µM
same,TGI,K-562 leukemia,> 100 µM
same,TGI,NCI-H23 lung,67.7 µM
same,TGI,SN12C renal,82.9 µM
same,TGI,EKVX NSCLC,56.9 µM
same,TGI,HOP-92 NSCLC,> 100 µM
same,TGI,PC-3 prostate,> 100 µM
same,TGI,COLO 205 colon,65.5 µM
same,TGI,M14 melanoma,51.6 µM
same,TGI,NCI-H460 lung,80.6 µM
same,TGI,A549 NSCLC,> 100 µM
same,TGI,SNB-75 CNS,> 100 µM
same,TGI,CAKI-1 renal,> 100 µM
same,TGI,HOP-62 NSCLC,57.7 µM
Nc1ncc(Cl)c(NCC2(CO)CC(CCc3ccccc3)C2)n1 (stereo unspecified),TGI,NCI/ADR-RES ovarian,> 100 µM
same,TGI,A498 renal,> 100 µM
same,TGI,LOX IMVI melanoma,> 100 µM
same,TGI,MDA-MB-435,> 100 µM
same,TGI,MCF7 breast,> 100 µM
same,TGI,UACC-62 melanoma,> 100 µM
same,TGI,MDA-N,> 100 µM
same,TGI,U251 CNS,> 100 µM
same,TGI,SR leukemia,> 100 µM
same,TGI,SF-295 CNS,> 100 µM
same,TGI,HS 578T breast,> 100 µM
same,TGI,HCT-116 colon,> 100 µM
same,TGI,UO-31 renal,> 100 µM
same,TGI,CCRF-CEM leukemia,> 100 µM
same,TGI,IGROV1 ovarian,> 100 µM
same,TGI,SF-268 CNS,> 100 µM
same,TGI,ACHN renal,> 100 µM
same,TGI,MALME-3M melanoma,> 100 µM
same,TGI,OVCAR-4 ovarian,> 100 µM
same,TGI,BT-549 breast,> 100 µM
same,TGI,RXF 393 renal,> 100 µM
same,TGI,SW-620 colon,> 100 µM
same,TGI,MDA-MB-231 breast,> 100 µM
same,TGI,HCC-2998 colon,> 100 µM
same,TGI,SNB-19 CNS,> 100 µM
same,TGI,DU-145 prostate,> 100 µM
same,TGI,MOLT-4 leukemia,> 100 µM
same,TGI,SK-MEL-5 melanoma,> 100 µM
same,TGI,SK-MEL-2 melanoma,> 100 µM
same,TGI,KM12 colon,> 100 µM
same,TGI,NCI-H522 lung,> 100 µM
same,TGI,SK-OV-3 ovarian,> 100 µM
same,TGI,NCI-H226 lung,> 100 µM
same,TGI,OVCAR-5 ovarian,> 100 µM
same,TGI,OVCAR-8 ovarian,> 100 µM
same,TGI,HT29 colon,> 100 µM
same,TGI,UACC-257 melanoma,> 100 µM
same,TGI,OVCAR-3 ovarian,> 100 µM
same,TGI,RPMI-8226 leukemia,> 100 µM
same,TGI,HL-60(TB) leukemia,> 100 µM
same,TGI,SF-539 CNS,> 100 µM
same,TGI,TK-10 renal,> 100 µM
same,TGI,T-47D breast,> 100 µM
same,TGI,HCT-15 colon,> 100 µM
same,TGI,SK-MEL-28 melanoma,> 100 µM
same,TGI,K-562 leukemia,> 100 µM
same,TGI,786-0 renal,> 100 µM
same,TGI,NCI-H23 lung,> 100 µM
same,TGI,SN12C renal,> 100 µM
same,TGI,EKVX NSCLC,> 100 µM
same,TGI,HOP-92 NSCLC,> 100 µM
same,TGI,PC-3 prostate,> 100 µM
same,TGI,COLO 205 colon,> 100 µM
same,TGI,M14 melanoma,> 100 µM
same,TGI,NCI-H460 lung,> 100 µM
same,TGI,A549 NSCLC,> 100 µM
same,TGI,SNB-75 CNS,99.4 µM
same,TGI,CAKI-1 renal,> 100 µM
same,TGI,HOP-62 NSCLC,> 100 µM
O=c1cc(-c2ccccc2)oc2cc(O)cc(O)c12,TGI,LOX IMVI melanoma,46.8 µM
same,TGI,UACC-62 melanoma,76.5 µM
same,TGI,KM20L2 colon,53.1 µM
same,TGI,U251 CNS,87.5 µM
same,TGI,SR leukemia,65.6 µM
same,TGI,DMS 114 small cell lung,58.2 µM
same,TGI,SF-295 CNS,37.6 µM
same,TGI,HCT-116 colon,50.9 µM
same,TGI,UO-31 renal,43.5 µM
same,TGI,CCRF-CEM leukemia,59.6 µM
same,TGI,SF-268 CNS,74.8 µM
same,TGI,ACHN renal,33.9 µM
same,TGI,MALME-3M melanoma,51.8 µM
same,TGI,OVCAR-4 ovarian,> 100 µM
same,TGI,XF 498 CNS,44.1 µM
same,TGI,HCC-2998 colon,38.6 µM
same,TGI,SNB-19 CNS,88.8 µM
same,TGI,MOLT-4 leukemia,61.1 µM
same,TGI,SK-MEL-5 melanoma,23.4 µM
same,TGI,SK-MEL-2 melanoma,39.6 µM
same,TGI,KM12 colon,39.6 µM
same,TGI,NCI-H522 lung,33 µM
same,TGI,SK-OV-3 ovarian,67 µM
same,TGI,NCI-H226 lung,58.1 µM
same,TGI,OVCAR-5 ovarian,37.4 µM
same,TGI,HT29 colon,> 100 µM
same,TGI,UACC-257 melanoma,62.3 µM
same,TGI,OVCAR-3 ovarian,82.1 µM
same,TGI,RPMI-8226 leukemia,41.7 µM
same,TGI,HL-60(TB) leukemia,48.3 µM
same,TGI,SF-539 CNS,31.3 µM
same,TGI,TK-10 renal,72.9 µM
same,TGI,HCT-15 colon,64 µM
same,TGI,M19-MEL melanoma,73.5 µM
same,TGI,LXFL 529 NSCLC,48.3 µM
same,TGI,SK-MEL-28 melanoma,43.5 µM
same,TGI,K-562 leukemia,63.1 µM
same,TGI,786-0 renal,60.1 µM
same,TGI,DMS 273 small cell lung,34 µM
same,TGI,NCI-H23 lung,62.8 µM
same,TGI,SN12C renal,54.6 µM
same,TGI,SNB-78 CNS,92.5 µM
same,TGI,EKVX NSCLC,72 µM
same,TGI,HOP-92 NSCLC,38.7 µM
same,TGI,COLO 205 colon,37.9 µM
same,TGI,M14 melanoma,82.9 µM
same,TGI,NCI-H460 lung,40.2 µM
same,TGI,A549 NSCLC,> 100 µM
same,TGI,SNB-75 CNS,31.2 µM
same,TGI,HOP-62 NSCLC,> 100 µM
